In patent publication US5686495A, “Substituted hydrazinedicarboximidamides and methods of use thereof” (Cambridge NeuroScience, Inc., priority 1995, dated 1997):
Entries after “also recorded” stand apart in the source; their conditions may differ. Structures can show the parent of a compound that is named as a salt. Where two headings read alike, the source gives them in different places.

Assays:
[1] = system: 3H-glutamate release from rat brain synaptosomes; experiment: Inhibition of K+-evoked 3H-glutamate release from synaptosomes (rapid superfusion); format: cell-based; conditions: for inhibition at 10 µM: read-out: Inhibition of Glutamate Release (Persistent Component), % Inhibition @ 10 uM; for inhibition at 30 µM: read-out: inhibition of glutamate release; for activity at 30 µM / activity at 100 µM: read-out: relative level of glutamate release
Description: To study the release of presynaptic ^3 H-glutamate, synaptosomes from young rats were used. CD Male rats of 4 to 6 weeks (50-75 g) were used for the preparation of synaptosomes. Rats were killed by decapitation with guillotine and the skull bone was opened in the center with the pointed blade of dissection scissors. The bone is then peeled away with a bone cutter and the brain is pried with a micro spatula. The cerebellum is removed and the rest of the brain is placed in 35 ml of 0.32M Sucrose solution and homogenized in a Thomas glass teflon homogenizer C at the maximum power setting (about 450 rpm) with 16 strokes. The pestle is rinsed with 5 ml of sucrose solution and added to the homogenate. The homogenate is centrifuged for 10 min at 3500 rpm (1500 g) in a SS-34 rotor in Sorvall RC-5B. The resulting pellet (P1) is discarded and the supernatant (S1) is recentrifuged for 20 min at 8700 rpm (8500 g). The supernatant (S2) is discarded and the pellet (P2) is resuspended in 5 ml of 0.32M sucrose and hand homogenized with 4 strokes (Thomas C) and the volume was made up to 8 ml. This homogenate was layered on 20 ml of 0.8M sucrose solution in two centrifuge tubes and spun for 25 minutes at 8700 rpm (8500 g). At the end of this spin, most of the myelin stays at the interphase of 0.32M and 0.8M sucrose and mitochondria pellet as a brown pellet. The synaptosomes are dispersed in the 0.8M sucrose. Using a 10 ml pipette, the 0.8M sucrose layer is collected (without disturbing the top myelin layer or the pellet) and diluted slowly with an equal volume of chilled basal buffer, while stirring gently with a Pasteur pipette. This diluted solution is centrifuged for 10 min at 10,000 rpm (12,000 g) and the pellet is resuspended in 1.5 ml of basal buffer and hand-homogenized in a Wheaton glass-glass 7 ml homogenizer with 8 strokes.
The synaptosomal homogenate is diluted 1 ml to 10 ml with basal buffer. This dilution gives a protein concentration of 500 to 600 μg/ml. One hundred μl of this diluted prep with 50-60 μg of protein is used for each superfusion event. […] The diluted synaptosomal solution was kept on ice until the end of the experiment.
^3 H-glutamate (purchased from NEN) is stored in the refrigerator. Pipette 6 μl ([…]; 40 to 55 Ci/mmol) into a disposable test tube. Add 100 μl of diluted prep and mix gently on vortex and incubate at 30° C. for 10 min. ^3 H-glutamate is taken up by sodium-coupledglutamate transporter present in synaptosomal membranes. After 10 min, dilute the incubation mixture with 690 μl of basal buffer. This solution is then transferred in Tygon tubing that is connected to the synaptosome loading chamber. Using a syringe filler with air, the solution is forced through the Millipore SC--GF/F--Millipore SC filter sandwich. These filters retain the synaptosomes and the solution flows through.
An important component of the superfusion setup is the custom made stainless steel "General Valve" three-valve solenoid operated superfusion chamber with an outlet for the effluent. The three inlets are connected to stainless steel buffer reservoirs that contain (1) wash buffer, (2) control buffer and (3) experimental buffer which are kept under 40 psi of nitrogen gas through teflon tubing connections. The superfusion is controlled through a menu-driven program on an Apple IIe computer. See Turner, J. T. et al., Anal. Biochem. 178:8-16 (1989), and U.S. Pat. No. 4,891,185, the disclosures of which are fully incorporated by reference herein.
The superfusion chamber has a teflon bushing and a stainless steel washer fixed with the flat surface facing the filters. A GF/B filter disc is placed first in the chamber to eliminate the switching related artifacts. The synaptosome loaded sandwich is then placed facing the synaptosomes into the flow followed by RA filter, stainless steel screen and a washer with the flat side facing the screen.

[2] = system: Ca2+-dependent glutamate release stimulated with the sodium channel activator veratridine; experiment: Glutamate release of synaptosomes depolarized with veratridine; format: cell-based; conditions: various concentrations
[3] = system: potassium-stimulated 45Ca uptake of synaptosomes; experiment: Potassium-stimulated 45Ca uptake into synaptosomes; format: cell-based, rat
Description: Several compounds were also tested to determine whether the Ca^2+ dependent and independent components of glutamate release are related to the blockage of ^45 Ca uptake. Calcium uptake is one step in the cascade of events which occur in neuronal cell death from ischemia. See Bassaclough and Leach, Current Patents Ltd., 2-27. The Ca-flux protocol is as follows. Rat brain synaptosomes were prepared according to Hajos, Brain Res. 93:485 (1975). Synaptosomes were suspended in low potassium "LK" buffer (containing 3 mM KCl) at 2 mg/ml. […] After 5 seconds, the ^45 Ca flux was stopped with 0.9 ml quench solution (LK+10 mM EGTA). The solution was filtered under vacuum and the filters washed with 15 ml of quench buffer. The effect of drug is expressed as % inhibition (or block) of control potassium-stimulated ^45 Ca influx. This method is an adaptation of the method disclosed by Nachsen and Blaustein, J. Physiol. 361:251-268 (1985).

[4] = target: sigma receptor; experiment: Sigma receptor binding against 3H-DTG
[5] = system: sodium channels in N1E-115 neuroblastoma cells; experiment: Whole cell sodium currents in voltage clamped N1E-115 neuroblastoma cells; format: cell-based
From the text: Whole cell sodium currents were elicited in voltage clamped N1E-115 neuroblastoma cells, using the stimulus protocol shown on the top of FIG. 7.

[6] = system: hippocampal slices (Schaffer collateral synaptic potentials); experiment: Hippocampal slice electrophysiology of excitatory synaptic transmission (field EPSP, population spikes); set-up: species or system Sprague-Dawley rats; conditions: for reversibility of effect: following washout
Description: Transverse sections of hippocampus were obtained from 4-6 week old Sprague-Dawley rats and maintained under standard conditions. […] Extracellular excitatory post synaptic potentials (EPSP's) were recorded by placing a saline-filled glass microelectrode in either the stratum radiatum or stratum lacunosum. Population spikes were recorded by placing an electrode in the stratum pyramidole.

[7] = system: ω-conotoxin-sensitive N-type calcium channels; experiment: Electrophysiology on N-type calcium channels of single dorsal root ganglion cells; format: cell-based, bullfrog
Description: Single bullfrog dorsal root ganglion cells, which express ω-conotoxin-sensitive N-type calcium channels, were treated with 5 uM of N,N'-di(acenaphthyl) guanidine. The solution also contained (in mM) CsCl, 90; creatine phosphate, 5; MgATP, 5; tris GTP, 0.3; EGTA, 10; HEPES, 10; pH 7.2. […] Calcium channel rundown during the recording period may account for the lack of complete reversal of inhibition. This further supports the hypothesis that certain substituted guanidines inhibit neurotransmitter release by […] presynaptic calcium channels.

[8] = Rattus norvegicus, read-out: Inhibition of 45Ca Uptake, % Inhibition @ 10 uM (SEM)
[9] = Rattus norvegicus; read-out: Inhibition of 45Ca Uptake, IC50
[10] = Rattus norvegicus; FIG. 6 curve fits; read-out: IC50, inhibition of potassium-stimulated Ca uptake of synaptosomes (FIG. 6)
[11] = bath application, listed as N,N'-di(5-acenaphthyl)guanidine, Hydrobromide

N=C(NC1C2CC3CC(C2)CC1C3)NC1C2CC3CC(C2)CC1C3 (stereo not drawn) [N,N'-di-(adamantan-2-yl)guanidine, N,N'-(Adamantan-2-yl)guanidine Hydrochloride]
inhibition at 10 µM ([1]; Rattus norvegicus): 60% | inhibition at 30 µM ([1]; Rattus norvegicus): 60% | activity at 30 µM ([1]; Rattus norvegicus): 40% | activity at 100 µM ([1]; Rattus norvegicus): 20% | inhibition of veratridine-stimulated glutamate release (FIG. 5) [2]: inhibition of glutamate release in a dose dependent manner | inhibition at 10 µM [3, 8]: 35% | IC50 [3, 9]: 16.1 ± 10 µM | IC50 [4]: 0.0927 µM

N=C(NC12CC3CC(CC(C3)C1)C2)NC12CC3CC(CC(C3)C1)C2 [N,N'-di-(adamantan-1-yl)guanidine]
concentration dependence of 3H-glutamate release (FIG. 2) ([1]; 0, 10, 30, 100 uM, 2.1 second K+ depolarizing pulse): decreasing release of glutamate from synaptosomes | inhibition at 10 µM ([1]; Rattus norvegicus): 49% | inhibition at 30 µM ([1]; Rattus norvegicus): 55% | activity at 30 µM ([1]; Rattus norvegicus): 45% | activity at 100 µM ([1]; Rattus norvegicus): 13% | inhibition at 10 µM [3, 8]: 25% | IC50 [3, 10]: 6.6 µM | IC50 [3, 9]: 25 ± 9 µM | IC50 [4]: 0.0165 µM

Br.N=C(Nc1ccc2c3c(cccc13)CC2)Nc1ccc2c3c(cccc13)CC2 [N,N'-Bis(5-acenaphthyl)guanidine, N,N'-Bis (5-Acenaphthyl)Guanidine Hydrobromide]
block of inward sodium currents, average ([5]; 30 uM, pressure ejection, N=5 cells): 40% | inhibition of inward sodium current in the cell shown (FIG. 7) ([5]; 30 uM, single cell of FIG. 7): 49% | reversal of sodium current block ([5]; following washout): partially reversed following washout | inhibition of Ca2+-dependent [3H]glutamate release (FIG. 3) ([1]; 0, 1, 3, 10 uM, K+ depolarization): potent inhibitor of glutamate release | selectivity between persistent and transient component of Ca2+-dependent glutamate release ([1]; 3-10 uM): blocks the persistent component of Ca^2+ -dependent glutamate release more than the initial transient component | inhibition at 10 µM ([1]; Rattus norvegicus): 92% | IC50 ([1]; Rattus norvegicus, read-out: Inhibition of Glutamate Release (Persistent Component), IC50): 3 µM | activity at 10 µM ([3]; Rattus norvegicus, read-out: % Uptake vs. Control): 43% | inhibition at 10 µM [3, 8]: 46% | IC50 ([3]; Rattus norvegicus, read-out: Inhibition of 45Ca Uptake, IC50): 10.7 ± 3 µM | inhibition at 20 µM ([6]; Rattus norvegicus, bath application, read-out: reduction of field EPSP amplitude): 80 to 90% | inhibition at 20 µM ([6]; Rattus norvegicus, bath application, read-out: reduction of population spike amplitude): 80 to 90% | effect on field EPSP [6, 11]: reversibly blocked; also recorded: almost completely eliminated the field EPSP | effect on population spikes [6, 11]: completely eliminated population spikes; also recorded: reversibly blocked these population spikes | reversibility of effect ([6]; listed as N,N'-di(5-acenaphthyl)guanidine, Hydrobromide): completely reversible following washout; also recorded: fully reversible following washout; also recorded: fully recovered following washout | inhibition of N-type calcium channel current ([7]; 5 uM): about 40% | inhibition of N-type calcium channel current ([7]; 20 uM): inhibited nearly all of the current | reversal of N-type current inhibition ([7]; in about 6 minutes): Most of the inhibition was reversed

N=C(Nc1cccc2ccccc12)Nc1cccc2ccccc12 [N,N'-di-(1-naphthyl)guanidine]
inhibition at 10 µM ([1]; Rattus norvegicus): 31% | activity at 30 µM ([1]; Rattus norvegicus): 19% | activity at 100 µM ([1]; Rattus norvegicus): 29% | inhibition at 10 µM [3, 8]: 27% | IC50 [3, 9]: 23.6 ± 10 µM

C1CCC(N=C(NNC(=NC2CCCCC2)NC2CCCCC2)NC2CCCCC2)CC1 [N,N',N",N"'-Tetracyclohexyl-Hydrazinedicarboximidamide]
inhibition at 10 µM ([1]; Rattus norvegicus): 67% | activity at 30 µM ([1]; Rattus norvegicus): 51% | inhibition at 10 µM [3, 8]: 74% | IC50 [3, 10]: 3.3 µM | IC50 [3, 9]: 3 µM

N=C(Nc1ccc(O)c2ccccc12)Nc1ccc2c3c(cccc13)CC2 [N-(5-acenaphthyl)-N'-(4-hydroxynaphthyl)guanidine]
inhibition at 10 µM ([1]; Rattus norvegicus): 25% | inhibition at 10 µM [3, 8]: 35%

Nc1ncnc2c1ncn2[C@@H]1O[C@H](CO)[C@@H](O)[C@H]1O [adenosine, reference compound]
inhibition at 1000 µM ([6]; Rattus norvegicus, 1 mM, bath application, read-out: reduction of field EPSP amplitude): 90% | effect on field EPSP ([6]; bath application): almost completely eliminated field EPSP's | effect on population spikes ([6]; bath application): totally blocked | reversibility of effect [6]: fully reversible following washout
